# In a melting point compilation (Tetko et al.; mined from patent text by program, amines drawn as free bases though some values may be those of a salt):
row,melting point [°C],Compound
1,109 to 110,CCOC(=O)/C=C/c1ccc(OCCOC)cc1OCc1nc(-c2ccccc2)oc1C
2,166 to 168,CCC(C(=O)Oc1cc(=O)n(-c2ccccc2)c2ncccc12)c1ccccc1 (stereo unspecified)
3,84 to 85,O=C(ON1CCC(c2nsc3ccccc23)CC1)c1ccccc1
4,177 to 178,CCN1CCN(NC(=O)c2cc(Cl)c(N)cc2OC)CC1
5,97 to 99,Cn1c(C(F)(F)F)cc(=O)n(-c2cc(OCCOC=C(Cl)Cl)c(Cl)cc2F)c1=O
6,149 to 150,NS(=O)(=O)OCCOc1cccc(-n2ccnc2)c1
7,131 to 132,CC(=O)Nc1nc(CCc2ccc(CN3CCC(NC(=O)OC(C)(C)C)C3)cc2)cs1 (stereo unspecified)
8,190 to 195,COc1ccc(N2CCOCC2)c2sc(-c3nc4ccc(N(C)CC5CCOCC5)nc4[nH]3)nc12
9,276,CC(C)(C)c1cc(N2C=NC(NC(=N)N)S2)cc(C(C)(C)C)c1O (stereo unspecified)
10,245 to 248,O=C(O)c1ccc(-c2csc(-c3ccccc3)n2)cc1
11,102 to 105,Cc1ccc(C(=O)c2ccc(CC#N)n2C)cc1
12,190 to 195,Cn1ncc2nn(-c3cc(C(F)(F)F)ccc3F)c(=O)cc21
13,156 to 158,CCNc1nc2ccc(CCc3cn4ccc(C)cc4n3)cc2o1
14,182 to 185,CC(c1ccnc(N)c1)C(O)(Cn1cncn1)c1ccc(F)cc1F (stereo unspecified)
15,149 to 151,CCn1cnc2c(Nc3cccc(N)c3)nc(N[C@H]3CC[C@H](O)CC3)nc21
16,133 to 135,COC(=O)c1cc(NC(C)=O)ccc1OC(C)=O
17,77.7 to 78.5,C=CC(C)(C)OC(=O)c1c(C)nc2c(cnn2CCCCC)c1N
18,94 to 95,O=S(=O)(On1nnc2ccccc21)c1ccc(Cl)cc1
19,130 to 132,Cc1c(C(=O)C2CSC(c3cccnc3)N2)c2ccccc2n1C(=O)N(C)C (stereo unspecified)
20,113,Cc1sc2ncc(C(=O)CC(O)c3ccccc3)n2c1C (stereo unspecified)
21,215 to 217,CCCCc1nc(CO)c(C(=O)O)n1Cc1ccc(-c2ccccc2-c2nnn[nH]2)cc1
22,190,Cc1cc(Cl)ccc1NC(=O)NCCCl
23,230 to 231,O=C1NC(=O)c2ccc(I)cc2/C1=C/NCc1ccc(-n2cccc2)c(O)c1
24,115 to 118,CN1Cc2cccnc2C(N2CC[N+]([O-])(C(=O)Cc3ccncc3)CC2)c2ccc(Cl)cc21 (stereo unspecified)
25,180,Cc1c(C)c(Br)c2ncccc2c1C

row,melting point [°C],Compound
1,129 to 131,Cc1cnc(-c2ccc(CBr)cc2)nc1
2,169 to 171,O=S(=O)(c1ccc(-n2cccn2)cc1)N1CCC(CNCC(O)COc2ccc(O)cc2)CC1 (stereo unspecified)
3,112 to 116,O=C(N(Cc1cccs1)CC1CCCCC1)C12CC3CC(CC(C3)C1)C2
4,201 to 202,COc1cc2c(Nc3ccc(Cl)cc3F)ncnc2cc1OCC1CCOC1 (stereo unspecified)
5,250,COC(=O)CCc1ccc(N2C(=O)CN(c3ccc(C(=N)NC(=O)OC)cc3)C2=O)cc1
6,91 to 92,O=C(c1ccccc1)c1ccc(-c2nc(COc3ccc(CCCCn4ccnc4)cc3)co2)cc1
7,> 300,Nc1c(F)c(F)c(F)c(F)c1NC(=S)Nc1c(Cl)cccc1Cl
8,121 to 123,C=CCOc1ccc2c(=O)c(C)c(-c3ccccc3)oc2c1C(=O)C=Cc1cc(OC)c(OC)c(OC)c1
9,107 to 109,O[C@H](CN[C@H]1CCCc2ccccc21)COc1cccc2ccccc12
10,232 to 234,COc1cccc(Nc2c(N)cc(C(=O)O)cc2S(N)(=O)=O)c1
11,183,CC(=O)N[C@H]1CC[C@H](CCN2CCC(c3cccc4c3CCO4)CC2)CC1
12,160 to 162,COc1cc2c(cc1OC(C)C)-c1c(Br)c3c(n1CC2)C(=O)N(C(C)(C)C)CCOC3
13,178,COc1ccc(C2=NN(C3CCN(C(=O)CN4C(=O)Cc5ccccc54)CC3)C(=O)C2(C)C)cc1OC
14,189,CCOc1ccc(C2(O)CCN(CC(O)c3ccc(O)c(C)c3)CC2)cn1 (stereo unspecified)
15,73 to 74,COC(=O)[C@@H](NC(=O)c1ccc(F)c(Br)c1)[C@@H](C)O
16,133 to 142,NS(=O)(=O)c1cc(C(O)CN(Cc2ccccc2)Cc2ccccc2)ccc1N1CCCCC1 (stereo unspecified)
17,167 to 171,COC(=O)c1c(C(=O)O)c(O)c2cc(OC)c(OC)c(OC)c2c1-c1cc(OC)c(OC)c(OC)c1
18,153,Cc1nn(C)c(=O)n1-c1ccc([N+](=O)[O-])cc1
19,144 to 146,CC(C)(C)C(=O)NCCc1ccc(O)c(O)c1
20,> 300,N#Cc1cccc(-c2ccc3c(Cl)cnc(NC(=N)N)c3c2)c1
21,74,CC(=O)c1cc(N)c(Cl)cc1Cl
22,114 to 117,COc1ccc(C=O)c(O)c1Cl
23,180 to 182,COc1ccc(-n2cnc3c(OC)nc4ccccc4c32)cc1
24,197 to 199,CCOC(=O)C1=C(C)NC(C)=C(C(=O)OC)C1c1cccc(NC(C)=O)c1 (stereo unspecified)
25,234 to 236,CN(C)CCOc1ccc(Cl)c(C(=O)O)c1Cl

row,melting point [°C],Compound
1,125 to 127,CN1C(=O)C2C3C=CC(CC3)C2(c2ccc(F)c(F)c2)C1=O (stereo unspecified)
2,202 to 203,CCn1c(=O)ccc2cnc(S(C)=O)nc21 (stereo unspecified)
3,73 to 75,C=C1CCC2C3CCC4CC(OCOC)CCC4(C)C3CCC12C (stereo unspecified)
4,145 to 147,CC(=O)Nc1cccc(CNC(=O)[C@H]2N(C(=O)[C@@H](O)[C@H](Cc3ccccc3)NC(=O)c3cccc(O)c3C)CSC2(C)C)c1
5,> 300,N=C(NO)c1ccc(-c2ccc(-c3ccc(C(=N)NO)o3)cc2)o1
6,194 to 195,CC(=O)Nc1ccc(Cc2cc(C)c(C(=O)c3ccc(Cl)cc3)n2C)nc1
7,153 to 155,COc1ccc(CCNC(=O)CCCCC(=O)NCCc2ccc(OC)c(OC)c2CCc2cccc(OC)c2)cc1
8,196,CC1(Cl)C=CC2=C(c3cccc(CCCC(=O)O)c3)C(CC(=O)Nc3ccc(F)cc3C(F)(F)F)C(=O)OC2=C1 (stereo unspecified)
9,149 to 150,CCC(OC)c1c(Br)c(Oc2ncnc3[nH]nnc23)c(OC)c(C)c1C(C)C (stereo unspecified)
10,149 to 151,CS(=O)(=O)NS(=O)(=O)c1ccc(CCCl)cc1
11,129 to 132,CCCCCCCCOC(=S)c1cc(C(C)(C)C)c(OC(=O)c2cc(C(C)(C)C)c(O)c(C(C)(C)C)c2)c(C(C)(C)C)c1
12,175 to 177,Cc1cc2oc(S(=O)(=O)N=CN(C)C)cc2cn1
13,150 to 151,COc1ccc(-c2cc(=O)n(Cc3ccc(F)cc3F)nc2-c2ccc(OC)cc2)cc1
14,184 to 187,CN(C)S(=O)(=O)n1cc(-c2ccc(Cl)cc2Cl)nc1C(N)=S
15,91.5 to 92,Nc1noc(C(F)(F)F)c1-c1ccccc1
16,222 to 223,CN(c1cccc2c(Cl)c(-c3nccs3)[nH]c12)S(=O)(=O)c1cccs1
17,126 to 130,CC(N)=CC(=O)c1ccc(Cl)cc1
18,108 to 110,CCOC(=O)N(O)Cc1cccc(Nc2ccccc2C(=O)OC)c1Cl
19,140,O=c1[nH]c2ccccc2c(=O)n1CCCCNCCCn1c(=O)[nH]c2ccccc2c1=O
20,120 to 121,O=C(O)CP(=O)(O)CCc1ccccc1
21,53 to 54,C#CCC1(O)CCCCC1
22,175 to 176,CN(C)CCNC(=O)c1c2ccccc2nc2c1[nH]c1ccccc12
23,135 to 136,CC(CC(=O)O)CC(=O)Nc1cccc(-c2ccnc3c(C(=O)c4cccs4)cnn23)c1 (stereo unspecified)
24,191 to 193,O=C1CNC(=O)N1Cc1ccc2c(c1)N(C1CCN(CCc3ccc(F)cc3)CC1)CC2
25,197 to 199,CCOc1cccc(NC(=O)NS(=O)(=O)c2ccc(C)cc2)n1

row,melting point [°C],Compound
1,38 to 39,CCC(O)(c1ccccc1)c1cc(C)ccc1C (stereo unspecified)
2,84 to 86,CCNc1c(C)c(C)c2c(c1C)CC(C)(CN1CCC(c3ccccc3)CC1)O2 (stereo unspecified)
3,215 to 217,Cc1nc(N2CCN(CCc3c[nH]c4ccccc34)C2=O)sc1C(=O)NCc1ccccc1
4,156 to 157,CNC(=O)NC(CCSC)C(N)=O (racemic)
5,245 to 247,O=C(O)c1cn(C2CN(C(c3ccccc3)c3ccccc3)C2)c2cc(F)c(F)cc2c1=O
6,237 to 239,COc1cc(Nc2c(C#N)cnc3cc(C#Cc4ccccn4)sc23)c(Cl)cc1Cl
7,130 to 135,N=C(N)NCCc1nccs1
8,132 to 136,Cc1[nH]c(-c2ccccc2)c(NC(C)C)c1C(=O)c1ccccc1
9,165 to 166,CCC1Cc2cc(OC(C)(C)C(=O)O)c(Cl)c(Cl)c2C1=O (stereo unspecified)
10,58 to 60,CCCCCCCCCCCCCCCCCCCCSCCCO
11,26 to 28,CCOC(=O)c1cnc(OC)nc1Cl
12,56 to 56.5,COc1cc([N+](=O)[O-])c2nccc(C)c2c1OCCCCCCCCCc1ccccc1
13,252 to 253,NC1CN(c2c(F)c(F)c3c(=O)c(C(=O)O)cn(C4CC4)c3c2F)CC1CF (stereo unspecified)
14,105 to 107,CCCSc1nc(NC2CC2c2cccc(N)c2)c2nnn(C3CC(O)C(O)C3O)c2n1 (stereo unspecified)
15,152 to 154,CON(C)C(=O)Nc1ccc(OCc2nc(Cl)ccc2Cl)cc1
16,92 to 94,CN1CC(CCCl)Oc2ccc(Br)cc2C1=O (stereo unspecified)
17,128,O=S(=O)(N=Cc1ccc(Cl)cc1)c1ccc(Cl)cc1
18,154 to 155,CC(=O)N1CCN=C1Nc1cc(-c2ccccc2)nn1C
19,185 to 187,COc1cc(C(=O)N(C(C)C)C2CCCCC2)ccc1Cn1ccc2ncnc-2c1C
20,> 300,O=C(O)c1ccc(-c2n[nH]c(-c3ccccc3)n2)cc1
21,100 to 101,Cn1cccc1-c1nc2cc(Cl)cc(CCc3ccccn3)c2o1
22,110,CC1(C(O)(Cc2ccccc2Cl)Cn2cncn2)CCCC1 (stereo unspecified)
23,141 to 143,CCN(CCCN1C(=O)c2cc(OC)ccc2C(C)(C)C1=O)CCCN1C(=O)c2cc(OC)ccc2C(C)(C)C1=O
24,71,CC(C)=CC(=O)On1cc(Cl)cn1

row,Compound,melting point [°C]
1,CC(Cc1ccc(OC(C)C)cc1)NCC(O)c1cccc(Cl)c1 (stereo unspecified),58 to 61
2,CN1CCc2c(-c3ccc(F)cc3)ccc([N+](=O)[O-])c2C1,140 to 143
